Test results reported in US11279733B2, “Peptide antibiotics” (priority 2017, dated 2022).
≈ marks a conversion by molar mass, not a printed value. Positions of bridges follow the written chain, without caps; N, C: chain ends. Non-standard residues stand in square brackets, D forms with d. Residues, ends and D or L forms follow the SMILES beside them. *: point of attachment. Decanoyl(3R-OH) = CCCCCCC[C@@H](O)CC(=O)*; dDab = NCC[C@@H](N)C(=O)O; Orn = NCCC[C@H](N)C(=O)O; Dab = NCC[C@H](N)C(=O)O

What was measured:
[1] = In vitro nephrotoxicity, LDH release from primary human kidney cells; format: cell-based; conditions: pH 7.4
Source text: (§1) hPT cells were derived from whole human kidneys procured by the International Institute for the Advancement of Medicine (Edison, N.J., USA). All tissue was scored by a pathologist as normal (i.e., derived from non-cancerous, non-diseased tissue). Cell isolation procedures were based on those originally described by Todd et al. (1996) and modified (Cummings and Lash, 2000; Cummings et al., 2000) with use of sterile conditions (i.e., all instruments and glassware were autoclaved and all buffers were filtered through a 0.2-μm pore-size filter). Renal cortex and outer stripe were cut into slices, washed with sterile PBS, minced, and the pieces were placed in a trypsinization flask filled with 300 ml of sterile, filtered Hanks' buffer, containing 25 mM NaHCO3, 25 mM HEPES, pH 7.4, 0.5 mM EGTA, 0.2% (w/v) bovine serum albumin, 50 μg/ml gentamicin, 1.3 mg/mL collagenase, and 0.59 mg/ml CaCl2), which was filtered prior to use. Whole kidneys were perfused with Wisconsin medium and kept on ice until they arrived at the laboratory, which was usually within 24 h of removal from the donor.
(§2) All buffers were continuously bubbled with 95% O2/5% CO2 and were maintained at 37° C. Minced cortical pieces from whole kidneys were subjected to collagenase digestion for 60 min, after which the supernatant was filtered through a 70-μm mesh filter to remove tissue fragments, centrifuged at 150×g for 7 min, and the pellet resuspended in Dulbecco's Modified Eagle's Medium: Ham's F12 Medium (DMEM/F12; 1/1). Approximately 5 to 7×10^6 cells were obtained per 1 g of human kidney cortical tissue.
(§3) hPT cells were resuspended in 2 mL of DMEM/F12 and diluted to 500 mL with cell culture medium, which was serum-free and hormonally-defined. Composition of this supplemented medium was based on earlier work establishing optimal conditions for primary culture of rat PT cells (Lash et al., 1995). Basal medium was a 1:1 mixture of DMEM/F12. […] Cells were seeded in a volume of 0.5 ml at a density of 50-100 μg protein per cm^2 (0.5-1.0×10^6 cells/ml) on 24-well plates. Cultures were grown at 37° C. in a humidified incubator under an atmosphere of 95% air/5% CO2 at pH 7.4. Cultures were grown to approximately 80%-90% confluence (generally 5-6 days) prior to experiments. Cells were harvested by either scraping the flasks with a Teflon scraper or by brief incubation with Cellstripper (Cellgro, Herndon, Va., USA) (in Ca^2+- and Mg^2+-free Hanks' buffer).

[2] = In vitro nephrotoxicity, GGT release from primary human kidney cells; format: cell-based; conditions: pH 7.4
Source text: as §1, §2, §3
Release of gamm-glutanyltransferase was assessed according to Orlowski, M., Meister, A. 1963. γ-Glutamyl-p-nitroanilide: A new convenient substrate for determination and study of L- and D-γ-glutamyltranspeptidase activities (Biochim. Biophys. Acta 73: 679-681.)
A 2.5 mM substrate Solution was prepared from 67 mg γ-glutamyl-p-nitroanilide+264 mg glycylglycine in 100 mL of 0.05 M Tris, pH 8.2 (50 mM Tris, pH 8.2: 605 mg Tris/HCl per 100 mL).
For the assay in 96-well plates, 6-μL of sample and 0.3 mL substrate solution were added to each well. The absorbance was measured at 410 nm for the appearance of product, p-nitroanilide (molar extinction=8800 M^−1 cm^−1).

Neisseria gonorrhoeae = assay: MIC determination, Neisseria gonorrhoeae; format: cell-based; conditions: for MIC N. gonorrhoeae FA19 ATCC BAA-1838: strain FA19 ATCC BAA-1838; for MIC N. gonorrhoeae F89: strain F89; for MIC N. gonorrhoeae FA1090 A25 ATCC 700825: strain FA1090 A25 ATCC 700825; for MIC N. gonorrhoeae H041: strain H041
Method: Bacteria were either obtained from American Type Culture Collection (ATCC; Manassas, Va., USA) or independent academic clinical isolate collections, as listed in Table 18 below. Bacteria were cultured in Nutrient broth (NB; Bacto Laboratories, catalogue No. 234000) or Mueller Hinton broth (MHB; Bacto Laboratories, catalogue No. 211443) at 37° C. overnight with shaking (˜180 RPM). A sample of each culture was then diluted 50-fold in fresh MHB and incubated at 37° C. for 2-3 h with shaking (˜180 RPM). Compound stock solutions were prepared as 0.64 mg/mL or 2.56 mg/mL in water. The compounds, at twice the final desired concentration, were serially diluted 2-fold across the wells of 96-well plates (Polystyrene, Corning, catalogue No. 3370). Mid-log phase bacterial cultures (after 2-3 h incubation) were diluted to a final concentration of 1×10^6 colony forming units (CFU)/mL, and 50 μL was added to each well giving a final cell density of 5×10^5 and a compound concentration range of 32 μg/mL to 0.015 μg/mL (128-0.06 μg/mL against P. aeruginosa PA9704).

[3] = system: S. aureus ATCC 25923, MSSA; conditions: ATCC 25923
Outline: (§4)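 Mid-log cultures grown in Mueller Hinton broth at 37° C were tested by 2-fold broth microdilution at 5×10^5 CFU/mL final. Compounds were dissolved in water and tested over a final range of 32 to 0.015 μg/mL.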

[4] = system: K. pneumoniae ATCC 700603, MDR; conditions: ATCC 700603
Outline: as §4

E. coli ATCC 25922 = conditions: ATCC 25922
Outline: as §4

[5] = system: K. pneumoniae GN_106, PmxR; conditions: GN 106, PmxR
Outline: as §4

[6] = system: K. pneumoniae GN_102 PmxR; conditions: GN 102 PmxR
Outline: as §4

[7] = system: P. aeruginosa GN_043, PmxR; conditions: polymyxin-resistant
Outline: as §4

A. baumannii ATCC 19606 = conditions: ATCC 19606
Outline: as §4

K. pneumoniae ATCC 13883 = conditions: ATCC 13883
Outline: as §4

[8] = system: K. pneumoniae ATCC BAA-2146, NDM-1 pos; conditions: ATCC BAA-2146
Outline: as §4

A. baumannii GN_093 PmxR = conditions: GN 093 PmxR
Outline: as §4

P. aeruginosa ATCC 27853 = conditions: ATCC 27853
Outline: as §4

[9] = system: P. aeruginosa GN_105, PmxR; conditions: GN 105, PmxR
Outline: as §4

| Compound | CC50 [1] | CC50 [2] | MIC N. gonorrhoeae FA19 ATCC BAA-1838 (Neisseria gonorrhoeae) | MIC S. aureus ATCC 25923, MSSA [3] | MIC K. pneumoniae ATCC 700603, MDR [4] | MIC E. coli ATCC 25922 (E. coli ATCC 25922) | MIC K. pneumoniae GN_106, PmxR [5] | MIC K. pneumoniae GN_102 PmxR [6] | MIC P. aeruginosa GN_043, PmxR [7] | MIC A. baumannii ATCC 19606 (A. baumannii ATCC 19606) | MIC K. pneumoniae ATCC 13883 (K. pneumoniae ATCC 13883) | MIC K. pneumoniae ATCC BAA-2146, NDM-1 pos [8] | MIC A. baumannii GN_093 PmxR (A. baumannii GN_093 PmxR) | MIC P. aeruginosa ATCC 27853 (P. aeruginosa ATCC 27853) | MIC N. gonorrhoeae F89 (Neisseria gonorrhoeae) | MIC N. gonorrhoeae FA1090 A25 ATCC 700825 (Neisseria gonorrhoeae) | MIC N. gonorrhoeae H041 (Neisseria gonorrhoeae) | other results |
| --- | --- | --- | --- | --- | --- | --- | --- | --- | --- | --- | --- | --- | --- | --- | --- | --- | --- | --- |
| CCCCCCC[C@@H](O)CC(=O)N[C@H](CCN)C(=O)N[C@H]1CCNC(=O)[C@H](CC(C)C)NC(=O)[C@H](CCCNC(=N)N)NC(=O)[C@H](CCN)NC(=O)[C@H](CC(C)C)NC(=O)[C@@H](Cc2ccccc2)NC(=O)[C@H](CCN)NC1=O [compound 8643, 3(R)OH-nC9CO-D-Dab-cyc[L-Dab-L-DAB-D-Phe-L-Leu-L-Dab-L-Arg-L-Leu]] ({Decanoyl(3R-OH)}-[dDab][Dab][Dab][dF]L[Dab]RL; lactam 2-C) | > 128 µg/mL | > 128 µg/mL | 1.56 µg/mL (≈ 1.42 µM) | 16 µg/mL (≈ 14.5 µM) | 2 µg/mL (≈ 1.82 µM) | 1 µg/mL (≈ 0.909 µM) | 2 µg/mL (≈ 1.82 µM) | 2 µg/mL (≈ 1.82 µM) | 2 µg/mL (≈ 1.82 µM) | 4 µg/mL (≈ 3.63 µM) | 2 µg/mL (≈ 1.82 µM) | 2 µg/mL (≈ 1.82 µM) | 16 µg/mL (≈ 14.5 µM) | 2 µg/mL (≈ 1.82 µM) |  |  |  |  |
| CCCCCCC[C@@H](O)CC(=O)N[C@H](CCN)C(=O)N[C@H]1CCNC(=O)[C@H](Cc2c[nH]c3ccccc23)NC(=O)[C@H](CCN)NC(=O)[C@H](CCN)NC(=O)[C@H](CC(C)C)NC(=O)[C@@H](Cc2ccccc2)NC(=O)[C@H](CCN)NC1=O [compound 6509, 3(R)OH-nC9CO-D-Dab-cyc[L-Dab-L-Dab-D-Phe-L-Leu-L-Dab-L-Dab-L-Trp]] ({Decanoyl(3R-OH)}-[dDab][Dab][Dab][dF]L[Dab][Dab]W; lactam 2-C) | > 128 µg/mL | > 128 µg/mL | 0.78 µg/mL (≈ 0.698 µM) | 4 µg/mL (≈ 3.58 µM) | 2 µg/mL (≈ 1.79 µM) | 4 µg/mL (≈ 3.58 µM) | 4 µg/mL (≈ 3.58 µM) | 4 µg/mL (≈ 3.58 µM) | 1 µg/mL (≈ 0.895 µM) | 8 µg/mL (≈ 7.16 µM) | 4 µg/mL (≈ 3.58 µM) | 4 µg/mL (≈ 3.58 µM) | 8 µg/mL (≈ 7.16 µM) | 2 µg/mL (≈ 1.79 µM) | 1.04 µg/mL (≈ 0.931 µM) | 0.65 µg/mL (≈ 0.582 µM) | 1.69 µg/mL (≈ 1.51 µM) | MIC P. aeruginosa GN_105, PmxR [9]: 1 µg/mL (≈ 0.895 µM) |
| CCCCCCC[C@@H](O)CC(=O)N[C@H](CCN)C(=O)N[C@H]1CCNC(=O)[C@H](CC(C)C)NC(=O)[C@H](CCN)NC(=O)[C@H](CCCN)NC(=O)[C@H](CC(C)C)NC(=O)[C@@H](Cc2ccccc2)NC(=O)[C@H](CCN)NC1=O [compound 991, 3(R)OH-nC9CO-D-Dab-cyc[L-Dab-L-Dab-D-Phe-L-Leu-L-Orn-L-Dab-L-Leu]] ({Decanoyl(3R-OH)}-[dDab][Dab][Dab][dF]L[Orn][Dab]L; lactam 2-C) | 107 µg/mL (≈ 101 µM) | > 128 µg/mL | 0.39 µg/mL (≈ 0.368 µM) |  |  |  |  |  |  |  |  |  |  |  | 1.3 µg/mL (≈ 1.23 µM) | 1.56 µg/mL (≈ 1.47 µM) | 2.08 µg/mL (≈ 1.97 µM) | MIC, S. Aureus ATCC 25923, MSSA [3]: 8 µg/mL (≈ 7.56 µM); MIC, K. pneumoniae ATCC 700603, MDR [4]: 4 µg/mL (≈ 3.78 µM); MIC, P. aeruginosa PA9704, PmxR [9]: 1 µg/mL (≈ 0.945 µM); MIC, E. coli ATCC 25922 (E. coli ATCC 25922): 4 µg/mL (≈ 3.78 µM); MIC, K. pneumoniae Cl 138-16347-20362, PmxR [5]: 2 µg/mL (≈ 1.89 µM); MIC, K. pneumoniae Cl Koprana 10065 0661:1, PmxR [6]: 1 µg/mL (≈ 0.945 µM); MIC, P. aeruginosa FADDI-PA070, PmxR ([7]; Table 5): 2 µg/mL (≈ 1.89 µM); MIC, A. baumannii ATCC 19606 (A. baumannii ATCC 19606): 4 µg/mL (≈ 3.78 µM); MIC, K. pneumoniae ATCC 13883 (K. pneumoniae ATCC 13883): 4 µg/mL (≈ 3.78 µM); MIC, K. pneumoniae ATCC BAA-2146, NDM-1 pos [8]: 4 µg/mL (≈ 3.78 µM); MIC, A. baumannii Cl Ptyela 10073 4512:2, PmxR (A. baumannii GN_093 PmxR): 8 µg/mL (≈ 7.56 µM); MIC, P. aeruginosa ATCC 27853 (P. aeruginosa ATCC 27853): 2 µg/mL (≈ 1.89 µM) |
